Data published in patent US7737125B2, “LNA antagonists targeting the androgen receptor” (Enzon Pharamaceuticals, Inc., priority 2007, dated 2010).
Strand notation (5' to 3'): a small letter for the sugar, then the base; units joined by * are phosphorothioate-linked, units joined directly phosphodiester-linked; [ ] holds rarer units or linkages, { } end groups; capitals alone tell only the bases. l = locked nucleic acid (LNA); [5mC] = 5-methylcytosine; d = 2'-deoxy (DNA)

Columns and labels:
[1] = system: mouse androgen receptor mRNA; experiment: In vivo knock-down of AR mRNA expression in mouse liver (QPCR); details: nude mice, 100 mg/kg i.v. q3dx4, liver 24 h after last dosing, normalised to mouse GAPDH, relative to saline treated animals
Protocol: Nude mice were dosed i.v. q3dx4 with 100 mg/kg oligonucleotide (group size of 5 mice). The antisense oligonucleotides (SEQ ID:48, SEQ ID:51, SEQ ID:58, SEQ ID:63, SEQ ID:77) were dissolved in phosphate buffered saline. Animals were sacrificed 24 h after last dosing and liver tissue was sampled and stored in RNA later until RNA extraction and QPCR analysis. Total RNA was extracted and AR mRNA expression in liver samples was measured by QPCR as described in Example 7 using a mouse AR QPCR assay (cat. Mm01238475_m1, Applied Biosystems). Results were normalised to mouse GAPDH (cat. no. 4352339E, Applied Biosystems) and knock-own was quantitated relative to saline treated controls. The data in Table 4 are presented as percentage down-regulation relative to saline treated animals.

[2] = system: human androgen receptor mRNA; experiment: AR mRNA knock-down in A549, 24 h post-transfection, 0.5-16 nM (qPCR); type: cell-based; details: 0.5, 1, 2, 4, 8 and 16 nM, 24 h post-transfection (FIG. 12)
Protocol: FIG. 12: AR mRNA in A549, 24 h post-transfection
(§1) Oligonucleotides were evaluated for their potential to knock down androgen receptor mRNA expression at concentrations of 0.5, 1, 2, 4, 8 and 16 nM (see FIG. 11). LNCaP prostate cancer cells and A549 lung cancer cells were seeded to a density of 150,000 cells per well in a 6-well plate the day prior to transfection. A549 cells were cultured in DMEM (Sigma)+10% fetal bovine serum (FBS)+2 mM Glutamax I+gentamicin (25 μg/ml). LNCaP cells were cultured in RPMI 1640 Medium (Sigma)+10% fetal bovine serum (FBS)+2 mM Glutamax I+gentamicin ([…]). On the following day, medium was removed followed by addition of 1.2 ml OptiMEM containing 5 μg/ml Lipofectamine2000 (Invitrogen). Cells were incubated for 7 min before adding 0.3 ml oligonucleotides diluted in OptiMEM. The final oligonucleotide concentrations were 0.5, 1, 2, 4, 8 and 16 nM. Cells were washed and serum-containing media was added. After oligomer treatment cells were allowed to recover for 20 hours before they were harvested for RNA analysis. The procedure for RNA isolation, cDNA synthesis and qPCR were as described in Examples 5, 6 and 7.

[3] = system: LNCaP prostate cancer cells; experiment: Measurement of proliferating viable cells (MTS assay), LNCaP; type: cell-based, human; details: 4 nM and 16 nM, time course post-transfection (FIG. 14)
Protocol: (§2) LNCaP prostate cancer and A549 lung cancer cells were seeded to a density of 150,000 cells per well in a 6-well plate the day prior to transfection. A549 cells were cultured in DMEM (Sigma)+10% fetal bovine serum (FBS)+2 mM Glutamax I+gentamicin (25 μg/ml) whereas LNCaP cells were cultured in RPMI 1640 Medium (Sigma)+10% fetal bovine serum (FBS)+2 mM Glutamax I+gentamicin (25 μg/ml). On the following day, medium was removed followed by addition of 1.2 ml OptiMEM containing 5 μg/ml Lipofectamine2000 (Invitrogen). Cells were incubated for 7 min before adding 0.3 ml oligonucleotides diluted in OptiMEM. The final oligonucleotide concentrations were 4 nM and 16 nM. After 4 hours of treatment, media was removed and cells were trypsinized and seeded to a density of 5000 cells per well in a clear 96 well plate (Scientific Orange no. 1472030100) in 100 μl media. Viable cells were measured at the times indicated by adding 10 μl the tetrazolium compound [3-(4,5-[…])-5-(3-carboxymethoxyphenyl)-2-(4-sulfophenyl)-2H-tetrazolium, inner salt; MTS] and an electron coupling reagent (phenazine ethosulfate; PES) (CellTiter 96® AQueous One Solution Cell Proliferation Assay, Promega). Viable cells were measured at 490 nm in a Powerwave (Biotek Instruments). The OD490 nm measurements were plotted against time/h. (See FIG. 13 and FIG. 14).

[4] = system: A549 lung cancer cells; experiment: Measurement of proliferating viable cells (MTS assay), A549; type: cell-based, human; details: 4 nM and 16 nM, time course post-transfection (FIG. 13)
Protocol: as §2

[5] = system: Caspase 3/7 activity in LNCaP cells; experiment: Caspase 3/7 activity (Caspase-Glo 3/7) in LNCaP cells; type: cell-based, human; details: 4 nM and 16 nM; 14 h, 48 h and 72 h (FIG. 15)
Protocol: (§3) LNCaP prostate cancer cells and A549 lung cancer cells were seeded to a density of 150,000 cells per well in a 6-well plate the day prior to transfection. A549 cells were cultured in DMEM (Sigma)+10% fetal bovine serum (FBS)+2 mM Glutamax I+gentamicin (25 μg/ml) whereas LNCaP cells were cultured in RPMI 1640 Medium (Sigma)+10% fetal bovine serum CUBS)+2 mM Glutamax I+gentamicin (25 μg/ml). The next day medium was removed followed by addition of 1.2 ml OptiMEM containing 5 μg/ml Lipofectamine2000 (Invitrogen). Cells were incubated for 7 min before adding 0.3 ml oligonucleotides diluted in OptiMEM. The final oligonucleotide concentrations were 4 nM and 16 nM. After 4 hours of treatment, media was removed and cells were trypsinized and seeded to a density of 5000 cells per well in a white 96 well plate (Nunc) in 100 μl media. Caspase 3/7 activity was measured at the times indicated by adding 100 μl Caspase-Glo 3/7 assay (Promega). Caspase 3/7 activity was measured using a luminometer. The caspase 3/7 activities were measured at three different time points 14 h, 48 h and 72 h (See FIG. 15 and FIG. 16).

[6] = system: human androgen receptor mRNA; experiment: AR mRNA knock-down in LNCaP, 24 h post-transfection, 0.5-16 nM (qPCR); type: cell-based; details: 0.5, 1, 2, 4, 8 and 16 nM, 24 h post-transfection (FIG. 11)
Protocol: FIG. 11: AR mRNA in LNCaP, 24 h post-transfection
as §1

[7] = system: Caspase 3/7 activity in A549 cells; experiment: Caspase 3/7 activity (Caspase-Glo 3/7) in A549 cells; type: cell-based, human; details: 4 nM and 16 nM; 14 h, 48 h and 72 h (FIG. 16)
Protocol: as §3

| Substance | Liver (% KD) of AR mRNA expression ([1]; listed as SEQ ID: 58, 100 mg/kg) | Knock down of AR mRNA expression in lung cancer cell line A549 [2] | Growth of LNCaP prostate cancer cells (viable cells, OD490 nm vs time) [3] | Growth of A549 lung cancer cells (viable cells, OD490 nm vs time) [4] | Caspase 3/7 activity in LNCaP cells [5] | Knock down of AR mRNA expression in LNCaP prostate cancer cell line [6] | Caspase 3/7 activity in A549 cells [7] | Liver (% KD) of AR mRNA expression ([1]; listed as SEQ ID: 77, 100 mg/kg) |
| --- | --- | --- | --- | --- | --- | --- | --- | --- |
| 5′-AsCsCsasasgstststscststscsAsGsC-3′ (antisense lA*l[5mC]*l[5mC]*dA*dA*dG*dT*dT*dT*dC*dT*dT*dC*lA*lG*l[5mC]) [SEQ ID NO: 58, LNA gapmer antisense oligonucleotide] | 95.2 +/− 1.0% | potent in knocking down AR mRNA expression | inhibit growth | inhibit growth | induce caspase 3/7 activity | potent in knocking down AR mRNA expression | induce caspase 3/7 activity |  |
| 5′-CsCsCsasasgsgscsascstsgscsAsGsA-3′ (antisense l[5mC]*l[5mC]*l[5mC]*dA*dA*dG*dG*dC*dA*dC*dT*dG*dC*lA*lG*lA) [SEQ ID NO: 77, LNA gapmer antisense oligonucleotide] |  | potent in knocking down AR mRNA expression | inhibit growth | inhibit growth | induce caspase 3/7 activity | potent in knocking down AR mRNA expression | induce caspase 3/7 activity | 91.9 +/− 3.9% |
